In assay [1] the test system is H9C2 cells. Description: Alanine scan: percentage of Cy5.5 positive H9C2 cells by FACS. The class given is cell-based, rat. The settings on record: percentage of Cy5.5 positive H9C2 cells normalized to non-mutated peptide (SEQ ID NO: 1); Cy5.5-conjugated peptides, 30 minutes at 37° C. How it is done: (§1) Variants of SEQ ID NO: 1 in which every amino acid was systematically mutated to alanine were synthesized in the University of Pittsburgh Peptide Synthesis Facility. Each variant was conjugated to the Cyanine5.5 fluorescent dye (Cy5.5). The rat cardiomyocyte cell line H9C2 (ATCC, catalogue #: CRL-1446) was incubated for 30 minutes at 37° C. with Dimethyl sulfoxide (DMSO) as a control, or the alanine peptide variants. Cells were then washed 3 times with PBS, trypsinized and resuspended, stained for live/dead cells, and then FACS sorted for Cy5.5 positive cells.
The percentage of Cy5.5 positive H9C2 cells, normalized to the non-mutated peptide (SEQ ID NO: 1), for each peptide variant is summarized in Table 2 below.

Assay [2] has as its system H9C2 cells. Description: Fluorescence activated cell sorting of H9C2 cells after 30 min incubation with 10 uM peptide (median Cy5.5). The assay is classed as cell-based, rat. The settings on record: for Corrected Median Cy5.5 / Raw Median Cy5.5: H9C2 cells, 30 min incubation, 10 uM peptide, single replicates; for Corrected Median Cy5.5: corrected for peptide fluorescence; for Average Correction: average of corrected median Cy5.5, H9C2 cells, FIG. 1C. How it is done:
as §1

Where no end group is shown, it is not given here.

As for “APAHLSSQYSRT (also: Cy5.5 conjugate, site not given here) [W3A, alanine variant of CTP, Cy5.5 conjugated]”, the “% transduction of H9C2 Cells” value with H9C2 cells [1] is 75.81%. Also, the “Corrected Median Cy5.5” value was 5369.7 with H9C2 cells [2] (listed as W3A_001), 5369.7 in the assay on H9C2 cells [2] (listed as W3A_002) and 5258.1 with H9C2 cells [2] (listed as W3A_003). Further, the figures for the “Raw Median Cy5.5” value with H9C2 cells [2] (listed as W3A_001), in the assay on H9C2 cells [2] (listed as W3A_002) and with H9C2 cells [2] (listed as W3A_003) were 4862, 4862 and 4761, respectively. Further, the “Average Correction” value in the assay on H9C2 cells [2] is listed as 5332.5.
As to “APWALSSQYSRT (also: Cy5.5 conjugate, site not given here) [H4A, alanine variant of CTP, Cy5.5 conjugated]”, in the assay with H9C2 cells [1], the “% transduction of H9C2 Cells” value amounted to 55.05%. The figures for the “Corrected Median Cy5.5” value with H9C2 cells [2] (listed as H4A_001), in the assay on H9C2 cells [2] (listed as H4A_002) and in the assay with H9C2 cells [2] (listed as H4A_003) were 7666.1, 8011.3 and 6934.0, respectively. The “Raw Median Cy5.5” value in the assay on H9C2 cells [2] (listed as H4A_001) was 7173; in the assay with H9C2 cells [2] (listed as H4A_002), 7496; with H9C2 cells [2] (listed as H4A_003) it was 6488. Further, the “Average Correction” value in the assay with H9C2 cells [2] was 7537.1.
Take “APWHASSQYSRT (also: Cy5.5 conjugate, site not given here) [L5A, alanine variant of CTP, Cy5.5 conjugated]”: the “% transduction of H9C2 Cells” value with H9C2 cells [1] was 87.81%. The “Corrected Median Cy5.5” value is on record as 5077.5 in the assay on H9C2 cells [2] (listed as L5A_001), 5522.0 with H9C2 cells [2] (listed as L5A_002) and 5370.0 in the assay with H9C2 cells [2] (listed as L5A_003). For the same sequence, the “Raw Median Cy5.5” value in the assay on H9C2 cells [2] (listed as L5A_001) is 3107; in the assay on H9C2 cells [2] (listed as L5A_002), 3379; in the assay on H9C2 cells [2] (listed as L5A_003), 3286. For the same sequence, in the assay on H9C2 cells [2], the “Average Correction” value was found to be 5323.2.
Consider “APWHLASQYSRT (also: Cy5.5 conjugate, site not given here) [S6A, alanine variant of CTP, Cy5.5 conjugated]”, for which the “% transduction of H9C2 Cells” value in the assay with H9C2 cells [1] is reported as 107.21%. The “Corrected Median Cy5.5” value with H9C2 cells [2] (listed as S6A_001) is reported as 17793.0; with H9C2 cells [2] (listed as S6A_002) it was 18393.5; in the assay on H9C2 cells [2] (listed as S6A_003), 20420.3. Further, the “Raw Median Cy5.5” value in the assay with H9C2 cells [2] (listed as S6A_001) is recorded as 22342; in the assay with H9C2 cells [2] (listed as S6A_002), 23096; with H9C2 cells [2] (listed as S6A_003) it was 25641. Further, in the assay with H9C2 cells [2], the “Average Correction” value came out at 18868.9.
“APWHLSAQYSRT (also: Cy5.5 conjugate, site not given here) [S7A, alanine variant of CTP, Cy5.5 conjugated]”: in the assay with H9C2 cells [1], the “% transduction of H9C2 Cells” value stood at 54.32%. For the same sequence, the “Corrected Median Cy5.5” value is reported as 21208.1 with H9C2 cells [2] (listed as S7A_001), 23475.6 in the assay on H9C2 cells [2] (listed as S7A_002) and 23755.1 with H9C2 cells [2] (listed as S7A_003). Further, the “Raw Median Cy5.5” value in the assay with H9C2 cells [2] (listed as S7A_001) is listed as 20184; in the assay with H9C2 cells [2] (listed as S7A_002), 22342; in the assay with H9C2 cells [2] (listed as S7A_003), 22608. In the assay on H9C2 cells [2], the “Average Correction” value stood at 22813.0.
In the case of “APWHLSSAYSRT (also: Cy5.5 conjugate, site not given here) [Q8A, alanine variant of CTP, Cy5.5 conjugated]”, in the assay with H9C2 cells [1], the “% transduction of H9C2 Cells” value came to 67.35%. In addition, the “Corrected Median Cy5.5” value was 9725.5 in the assay with H9C2 cells [2] (listed as Q8A_001), 9339.0 in the assay with H9C2 cells [2] (listed as Q8A_002) and 9049.4 with H9C2 cells [2] (listed as Q8A_003). Also, the entries for the “Raw Median Cy5.5” value in the assay with H9C2 cells [2] (listed as Q8A_001), with H9C2 cells [2] (listed as Q8A_002) and in the assay on H9C2 cells [2] (listed as Q8A_003) were 10041, 9642 and 9343, respectively. The “Average Correction” value with H9C2 cells [2] worked out at 9371.3.
As for “APWHLSSQASRT (also: Cy5.5 conjugate, site not given here) [Y9A, alanine variant of CTP, Cy5.5 conjugated]”, in the assay with H9C2 cells [1], the “% transduction of H9C2 Cells” value was 107%. In addition, the entries for the “Corrected Median Cy5.5” value in the assay on H9C2 cells [2] (listed as Y9A_001), in the assay on H9C2 cells [2] (listed as Y9A_002) and in the assay on H9C2 cells [2] (listed as Y9A_003) were 5365.7, 5445.9 and 5586.0, respectively. The results for the “Raw Median Cy5.5” value in the assay on H9C2 cells [2] (listed as Y9A_001), in the assay with H9C2 cells [2] (listed as Y9A_002) and with H9C2 cells [2] (listed as Y9A_003) were 5018, 5093 and 5224, respectively. Also, in the assay on H9C2 cells [2], the “Average Correction” value is on record as 5465.9.
Regarding “APWHLSSQYART (also: Cy5.5 conjugate, site not given here) [S10A, alanine variant of CTP, Cy5.5 conjugated]”, the “% transduction of H9C2 Cells” value with H9C2 cells [1] is given as 30.61%. The figures for the “Corrected Median Cy5.5” value in the assay on H9C2 cells [2] (listed as S10A_001), with H9C2 cells [2] (listed as S10A_002) and in the assay on H9C2 cells [2] (listed as S10A_003) were 3707.6, 3658.1 and 3959.6, respectively. The “Raw Median Cy5.5” value in the assay with H9C2 cells [2] (listed as S10A_001) is reported as 1722; with H9C2 cells [2] (listed as S10A_002), 1699; in the assay on H9C2 cells [2] (listed as S10A_003), 1839. The “Average Correction” value in the assay with H9C2 cells [2] came to 3775.1.
Regarding “APWHLSSQYSAT (also: Cy5.5 conjugate, site not given here) [R11A, alanine variant of CTP, Cy5.5 conjugated]”, the “% transduction of H9C2 Cells” value in the assay on H9C2 cells [1] was 32.75%. For the same sequence, the figures for the “Corrected Median Cy5.5” value with H9C2 cells [2] (listed as R11A_001), in the assay with H9C2 cells [2] (listed as R11A_002) and in the assay on H9C2 cells [2] (listed as R11A_003) were 10237.9, 10010.7 and 10518.6, respectively. In addition, the “Raw Median Cy5.5” value with H9C2 cells [2] (listed as R11A_001) is reported as 9555; with H9C2 cells [2] (listed as R11A_002), 9343; in the assay with H9C2 cells [2] (listed as R11A_003) it was 9817. In addition, in the assay with H9C2 cells [2], the “Average Correction” value was 10255.7.

Values taken from patent US12643924B2, “Cardiac-specific targeting-peptide (CTP), compositions, and uses thereof” (University of Pittsburgh—Of the Commonwealth System of …, priority 2018, dated 2026).
